This is an account of results in article PMC11056980 (Journal of medicinal chemistry, 2024).

“Also recorded” adds a separate entry of the source. Residues, ends and D or L forms follow the SMILES beside them. *: point of attachment. Cbz = O=C(OCc1ccccc1)*

Assay [1] has as its target M^Pro-eGFP fusion protein (Severe acute respiratory syndrome coronavirus 2, UniProt P0DTD1, Q3569G). It counts as cell-based, SARS-CoV-2.
The test system of assay [2] is SARS-CoV-2 delta variant hCoV-19/USA/MD-HP05647/2021. Type of assay: cell-based.
Assay [3] deals with recombinant SARS-CoV-2 Δ3678 mGFP containing an NSP5 E166A mutation. It counts as cell-based.
Assay [4] has as its target M^Pro (Severe acute respiratory syndrome coronavirus 2, UniProt P0DTD1). Type of assay: cell-based, SARS-CoV-2.
Assay [5] deals with recombinant SARS-CoV-2 Δ3678 mGFP containing an NSP5 E166A mutation. The note with it: cited from earlier work.

As for `CC(C)C[C@@H](C=O)NC(=O)[C@H](CC(C)C)NC(=O)[C@H](CC(C)C)NC(=O)OCc1ccccc1` [MG132, reference compound] (Cbz-Leu-Leu-Leu-aldehyde), the “Effect of proteasome inhibitor pretreatment on MPD2-induced M^Pro degradation” value in assay [1] is “effectively rescued”.

`C[C@@H](OC(C)(C)C)[C@H](NC(=O)OCc1cccc(OCCCCCCOc2cccc3c2C(=O)N(C2CCC(=O)NC2=O)C3=O)c1)C(=O)N[C@@H](CC1CCCCC1)C(=O)N[C@H](C=O)C[C@@H]1CCNC1=O` (some centres unmarked) [MPD2]: the “antiviral synergy with nirmatrelvir” value in assay [2] was “synergistic effects”. The “greater potency against NSP5 E166A mutant virus compared to wild-type Δ3678 mGFP” value in assay [3] stood at 5 fold. In addition, in assay [4], the “M^Pro degradation during SARS-CoV-2 infection” value was “most potent degrader”. Further, in assay [1], the “M^Pro degradation in CRBN knockout vs wildtype CRBN cells” value is “significant rescue of intracellular M^Pro” and the “M^Pro degradation, time course” value is “significant degradation; also recorded: nearly maximal degradation”.

As for `C[C@@H](OC(C)(C)C)[C@H](NC(=O)OCc1ccccc1)C(=O)N[C@@H](CC1CCCCC1)C(=O)N[C@H](C=O)C[C@@H]1CCNC1=O` [MPI8, reference compound], the “Effect of pretreatment on MPD2-induced M^Pro degradation (competition)” value in assay [1] is on record as “completely blocked”.

Regarding `CC(C)(C)[C@H](NC(=O)C(F)(F)F)C(=O)N1C[C@H]2[C@@H]([C@H]1C(=O)N[C@H](C#N)C[C@@H]1CCNC1=O)C2(C)C` [nirmatrelvir], in assay [5], the “resistance conferred by NSP5 E166A mutation” value is 10 fold.
